Measured values reported in patent US12365668B2, “Aminopyrazine diol compounds as PI3K-y inhibitors” (Incyte Corporation, priority 2018, dated 2025).
Read-outs that look alike come from different tables or passages of the source.

Assays:
[1] = tested on: Phosphorylated Ribosomal Protein S6 (RPS6) in THP-1 cells; test: THP-1 RPS6 ELISA Assay; format: cell-based, Human; conditions: serum starved, 2 hours compound, 10 nM MCP-1 for 15 minutes, Phospho-RPS6 ELISA, read-out: PI3Kγ_THP1_RPS6_ELISA IC50
Procedure: Example A. THP-1 RPS6 ELISA Assay
To measure the Phosphorylated Ribosomal Protein S6 (RPS6) in cell lysates, THP-1 cells (Human Acute Monocytic Leukemia) are purchased from ATCC (Manassas, VA) and maintained in RPMI with 10% FBS (Gibco/Life Technologies, Carlsbad, CA). For the assay, THP-1 cells are serum starved overnight in RPMI, then plated in RPMI (2×10^5 cells/well in 90 μL) into 96-well flat-bottom tissue culture treated plates (Corning, Corning, NY), in the presence or absence of a concentration range of test compounds. Covered plates are incubated for 2 hours at 37° C., 5% CO2 then treated with or without 10 nM MCP-1(MYBioSource, San Diego, CA) for 15 minutes at 37° C., 5% CO2. Plates are centrifuged at 1600 RPM and supernatants are removed. Cells are lysed in Lysis Buffer (Cell Signaling, Danvers, MA) with Protease Inhibitor (Calbiochem/EMD, Germany), PMSF (Sigma, St Louis MO), HALTS (Thermo Fisher, Rockford, IL) for 30 min on wet ice. Cell lysates are frozen at −80° C. before testing. The lysates are tested in the Human/Mouse/Rat Phospho-RPS6 ELISA (R&D Systems, Inc. Minn, MN). The plate is measured using a microplate reader (SpectraMax M5—Molecular Devices, LLC Sunnyvale, CA) set to 450 nm with a wavelength correction of 540. IC50 determination is performed by fitting the curve of inhibitor percent inhibition versus the log of the inhibitor concentration using the GraphPad Prism 5.0 software.

[2] = target: PI3Kδ (p110δ/p85α) Recombinant Human Protein (Homo sapiens (Human), UniProt O00329); test: PI3Kδ Scintillation Proximity Assay; format: biochemical; conditions: 20 μM PIP2, 2 μM ATP, SPA
Text: Example C. PI3Kδ Scintillation Proximity Assay Materials: [γ-^33P]ATP (10 mCi/mL) and Wheat Germ Agglutinin (WGA) YSi SPA Scintillation Beads was purchased from Perkin Elmer (Waltham, MA). Lipid kinase substrate, D-myo-Phosphatidylinositol 4,5-bisphosphate (PtdIns(4,5)P2)D (+)-sn-1,2-di-O-octanoylglyceryl, 3-O-phospho linked (PIP2), CAS 204858-53-7, was purchased from Echelon Biosciences (Salt Lake City, UT). PI3Kδ (p110δ/p85α) Recombinant Human Protein was purchased from Eurofins (St Charles, MO). ATP, MgCl2, DTT, EDTA, MOPS and CHAPS were purchased from Sigma Aldrich (St. Louis, MO). The kinase reaction was conducted in polystyrene 384-well Greiner Bio-one white plate from Thermo Fisher Scientific in a final volume of 25 μL. Inhibitors were first diluted serially in DMSO and added to the plate wells before the addition of other reaction components. The final concentration of DMSO in the assay was 2%. The PI3Kδ assay was carried out at room temperature in 20 mM MOPS, pH 6.7, 10 mM MgCl2, 5 mM DTT and CHAPS 0.03%. Reactions were initiated by the addition of ATP, the final reaction mixture consisted of 20 μM PIP2, 2 μM ATP, 0.5 μCi [γ-^33P] ATP, 3.4 nM PI3Kδ. Reactions were incubated for 120 min and terminated by the addition of 40 μL SPA beads suspended in quench buffer: 163 mM potassium phosphate pH 7.8, 20% glycerol, 25 mM EDTA. The final concentration of SPA beads is 1.0 mg/mL. After the plate sealing, plates were shaken overnight at room temperature and centrifuged at 1500 rpm for 10 min, the radioactivity of the product was determined by scintillation counting on Topcount (PerkinElmer). IC50 determination was performed by fitting the curve of percent of the solvent control activity versus the log of the inhibitor concentration using the GraphPad Prism 6.0 software.

[3] = target: PI3Kγ (p110γ) Recombinant Human Protein (Homo sapiens (Human), UniProt P48736); test: PI3K-γ Scintillation Proximity Assay; format: biochemical; conditions: 20 μM PIP2, 2 μM ATP, SPA
Text: Example B. PI3K-γ Scintillation Proximity Assay Materials: [γ-^33P]ATP (10 mCi/mL) and Wheat Germ Agglutinin (WGA) YSi SPA Scintillation Beads was purchased from Perkin Elmer (Waltham, MA). Lipid kinase substrate, D-myo-Phosphatidylinositol 4,5-bisphosphate (PtdIns(4,5)P2)D (+)-sn-1,2-di-O-octanoylglyceryl, 3-O-phospho linked (PIP2), CAS 204858-53-7, was purchased from Echelon Biosciences (Salt Lake City, UT). PI3Kγ (p110γ) Recombinant Human Protein was purchased from Life technology (Grand Island, NY). ATP, MgCl2, DTT, EDTA, MOPS and CHAPS were purchased from Sigma Aldrich (St. Louis, MO). The kinase reaction was conducted in polystyrene 384-well Greiner Bio-one white plate from Thermo Fisher Scientific in a final volume of 25 μL. Inhibitors were first diluted serially in DMSO and added to the plate wells before the addition of other reaction components. The final concentration of DMSO in the assay was 2%. The PI3Kγ assay was carried out at room temperature in 20 mM MOPS, pH 6.7, 10 mM MgCl2, 5 mM DTT and CHAPS 0.03%. Reactions were initiated by the addition of ATP, the final reaction mixture consisted of 20 μM PIP2, 2 μM ATP, 0.5 μCi [γ-^33P] ATP, 13 nM PI3Kγ. Reactions were incubated for 120 min and terminated by the addition of 40 μL SPA beads suspended in quench buffer: 163 mM potassium phosphate pH 7.8, 20% glycerol, 25 mM EDTA. The final concentration of SPA beads is 1.0 mg/mL. After the plate sealing, plates were shaken overnight at room temperature and centrifuged at 1500 rpm for 10 min, the radioactivity of the product was determined by scintillation counting on Topcount (Perkin-Elmer). IC50 determination was performed by fitting the curve of percent of the solvent control activity versus the log of the inhibitor concentration using the GraphPad Prism 6.0 software.

Chain of PI3Kδ (p110δ/p85α) Recombinant Human Protein (O00329 whole entry): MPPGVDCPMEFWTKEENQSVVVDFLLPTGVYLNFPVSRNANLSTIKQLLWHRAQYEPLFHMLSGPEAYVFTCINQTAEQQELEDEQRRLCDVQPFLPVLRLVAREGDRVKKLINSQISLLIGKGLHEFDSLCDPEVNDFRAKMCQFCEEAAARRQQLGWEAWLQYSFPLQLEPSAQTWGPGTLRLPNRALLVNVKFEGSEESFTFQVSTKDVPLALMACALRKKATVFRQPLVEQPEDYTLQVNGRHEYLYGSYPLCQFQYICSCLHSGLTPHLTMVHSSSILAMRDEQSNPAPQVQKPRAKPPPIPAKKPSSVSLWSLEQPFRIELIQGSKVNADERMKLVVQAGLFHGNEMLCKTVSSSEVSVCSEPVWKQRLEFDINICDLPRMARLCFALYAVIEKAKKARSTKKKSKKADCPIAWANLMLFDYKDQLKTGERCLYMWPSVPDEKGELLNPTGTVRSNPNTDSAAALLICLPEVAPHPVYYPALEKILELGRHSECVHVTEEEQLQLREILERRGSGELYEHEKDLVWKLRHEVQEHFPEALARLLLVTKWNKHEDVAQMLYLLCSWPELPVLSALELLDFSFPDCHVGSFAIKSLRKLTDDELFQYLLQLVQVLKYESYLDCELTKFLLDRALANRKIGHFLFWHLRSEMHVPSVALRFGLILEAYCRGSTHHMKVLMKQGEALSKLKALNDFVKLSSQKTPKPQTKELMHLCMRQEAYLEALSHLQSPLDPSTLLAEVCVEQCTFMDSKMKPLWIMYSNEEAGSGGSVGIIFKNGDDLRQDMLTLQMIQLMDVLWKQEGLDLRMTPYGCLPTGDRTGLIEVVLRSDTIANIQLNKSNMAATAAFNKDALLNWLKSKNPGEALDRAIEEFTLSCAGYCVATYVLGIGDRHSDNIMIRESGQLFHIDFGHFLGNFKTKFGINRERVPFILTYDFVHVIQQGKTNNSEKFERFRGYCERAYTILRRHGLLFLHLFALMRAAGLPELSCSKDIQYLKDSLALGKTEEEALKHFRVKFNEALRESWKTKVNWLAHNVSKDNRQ
Chain of PI3Kδ (p110δ/p85α) Recombinant Human Protein (P27986 whole entry partner): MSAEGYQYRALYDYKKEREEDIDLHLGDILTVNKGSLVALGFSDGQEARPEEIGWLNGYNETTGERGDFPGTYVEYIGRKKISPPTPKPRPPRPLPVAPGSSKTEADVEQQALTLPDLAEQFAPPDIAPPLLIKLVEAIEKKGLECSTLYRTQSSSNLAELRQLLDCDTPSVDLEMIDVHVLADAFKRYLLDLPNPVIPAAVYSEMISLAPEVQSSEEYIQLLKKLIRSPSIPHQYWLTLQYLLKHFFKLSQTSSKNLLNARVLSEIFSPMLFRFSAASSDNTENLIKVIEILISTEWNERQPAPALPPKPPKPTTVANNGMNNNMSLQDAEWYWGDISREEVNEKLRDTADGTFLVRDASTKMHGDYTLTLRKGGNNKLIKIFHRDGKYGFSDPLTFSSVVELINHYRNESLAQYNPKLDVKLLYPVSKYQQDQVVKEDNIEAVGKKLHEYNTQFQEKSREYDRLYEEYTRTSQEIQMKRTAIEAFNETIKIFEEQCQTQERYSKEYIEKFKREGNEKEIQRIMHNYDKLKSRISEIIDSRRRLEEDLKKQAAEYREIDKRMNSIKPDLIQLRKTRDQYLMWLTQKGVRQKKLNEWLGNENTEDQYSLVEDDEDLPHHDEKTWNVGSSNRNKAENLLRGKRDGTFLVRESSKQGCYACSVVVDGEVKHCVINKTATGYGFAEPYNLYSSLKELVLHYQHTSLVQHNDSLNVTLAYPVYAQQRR
Chain of PI3Kγ (p110γ) Recombinant Human Protein (P48736 whole entry): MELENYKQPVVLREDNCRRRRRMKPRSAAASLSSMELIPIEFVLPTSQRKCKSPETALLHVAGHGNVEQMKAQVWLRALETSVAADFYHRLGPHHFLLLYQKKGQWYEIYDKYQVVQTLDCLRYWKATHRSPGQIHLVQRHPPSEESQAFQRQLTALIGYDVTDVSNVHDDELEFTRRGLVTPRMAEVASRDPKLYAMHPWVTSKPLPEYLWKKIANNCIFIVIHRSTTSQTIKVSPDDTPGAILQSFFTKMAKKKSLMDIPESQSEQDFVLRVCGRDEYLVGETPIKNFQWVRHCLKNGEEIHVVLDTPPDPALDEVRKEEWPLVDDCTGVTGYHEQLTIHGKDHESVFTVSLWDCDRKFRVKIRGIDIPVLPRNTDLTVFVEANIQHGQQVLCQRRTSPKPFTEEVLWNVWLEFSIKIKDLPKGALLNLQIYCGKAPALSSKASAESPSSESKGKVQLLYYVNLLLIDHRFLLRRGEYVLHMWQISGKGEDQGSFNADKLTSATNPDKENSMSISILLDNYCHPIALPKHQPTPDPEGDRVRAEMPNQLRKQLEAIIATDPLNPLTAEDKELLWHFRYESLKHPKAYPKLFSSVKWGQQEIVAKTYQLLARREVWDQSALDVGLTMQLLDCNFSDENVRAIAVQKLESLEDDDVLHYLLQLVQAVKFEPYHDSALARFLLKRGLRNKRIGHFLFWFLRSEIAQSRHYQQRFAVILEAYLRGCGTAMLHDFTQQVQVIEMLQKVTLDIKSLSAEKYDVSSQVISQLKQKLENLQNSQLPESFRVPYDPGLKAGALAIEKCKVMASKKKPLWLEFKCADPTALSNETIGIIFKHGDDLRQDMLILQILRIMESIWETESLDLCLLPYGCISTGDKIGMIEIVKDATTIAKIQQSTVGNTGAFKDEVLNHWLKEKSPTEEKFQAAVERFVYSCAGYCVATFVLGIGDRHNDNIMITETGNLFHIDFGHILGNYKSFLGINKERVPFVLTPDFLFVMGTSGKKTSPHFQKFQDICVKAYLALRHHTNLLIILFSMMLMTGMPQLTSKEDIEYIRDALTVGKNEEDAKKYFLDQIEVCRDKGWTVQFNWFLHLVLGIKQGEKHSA

IC50 ([1]; Homo sapiens)	SMILES	IC50 [1]	IC50 [2]	IC50 [3]
–	Cc1ccc(C(O)(CO)C(F)(F)F)cc1-c1cnc(N)c(-n2nccn2)n1 (centres unmarked) [Example 14, 2-(3-(5-Amino-6-(1H-1,2,3-triazol-2-yl)pyrazin-2-yl)-4-methylphenyl)-3,3,3-trifluoropropane-1,2-diol]	< 100 nM	≤ 100 nM	≤ 100 nM
100 to 500 nM	Cc1ccc(C(O)(CO)C(F)(F)F)cc1-c1cnc(N)c(-n2cncn2)n1 (single isomer, unassigned) [Example 15, 2-(3-(5-Amino-6-(1H-1,2,4-triazol-1-yl)pyrazin-2-yl)-4-methylphenyl)-3,3,3-trifluoropropane-1,2-diol]	–	≤ 100 nM	≤ 100 nM
–	Cc1ccc([C@](O)(CO)C(F)F)cc1-c1cnc(N)c(C(=O)N2CCC[C@@H]2CO)n1 [Example 45, (3-Amino-6-(5-((S)-1,1-difluoro-2,3-dihydroxypropan-2-yl)-2-methylphenyl)pyrazin-2-yl)((R)-2-(hydroxymethyl)pyrrolidin-1-yl)methanone]	100 to 500 nM	500 to 2000 nM	–
